pKd: −log10 of the molar value. Values joined by “and” are separate entries in the source; they are usually repeats but may differ in a detail not shown here. Equal entries are not always repeated. “Also recorded” adds a separate entry of the source.
Tests used:
[1] = Plasma concentration of compound a1 after i.v. injection in mice (LC-MS-MS); assay type: in vivo, C57Bl/6 mice; details: for Plasma Conc. of Compound a1: 1 hour, single animal; for concentration at 1 h: female, C57Bl/6, mouse, plasma, intravenous
Method: (§1) Compound a1 was synthesized under contract by the company Enamine Ltd. according to Example 1. Dimethylsulfoxide (DMSO) from J. T. Baker (Germany), Cremophor EL (Polyoxyethyleneglycerol triricinoleate 35 castor oil) from BASF (Germany), and Saline solution 0.9% from B. Braun (Germany) were used in this study. Two types of formulations were prepared: a formulation with a high dose of compound a1 (9 mM) and a formulation with a low dose of compound a1 (1.8 mM); c.f. Tables 5 and 6. First, a 100 mM stock solution of compound a1 in DMSO was prepared by dissolving 18.46 mg of compound a1 (molecular weight of 461.56 g/mol) in 400 μl DMSO at room temperature. The formulation with the high dose of a1 was prepared using 9% a1-DMSO stock solution, 10% Cremophor EL, and 81% saline. The formulation with the low dose of a1 contained 1.8% a1-DMSO stock solution, 5% Cremophor EL, and 93.2% saline; c.f. FIG. 2.
(§2) Experiments were carried out in accordance with the EU Directive 86/609/EEC on the protection of animals used for scientific purposes. Female adult C57Bl/6 mice (6-8 weeks old, body weight 20 g) were treated with 5 mg/kg (low dose) and 25 mg/kg (high dose) compound a1 or with vehicle (formulations without compound a1) or with saline by intravenous (i.v.) injections for 1 hour using a 1 ml syringe (29-G, Terumo); c.f. Table 6. After injection, the mice were returned to their home cages, and after 1 hour, the mice were anaesthetized with isoflurane. Terminal blood samples were collected using a 1 ml syringe (20-G needle, B. Braun). The blood was immediately transferred into a 1.3 ml heparin-coated tube (Sarstedt). Plasma was collected by centrifugation at 1500 g for 15 minutes. The supernatant was placed in a 1.5 ml tube on dry ice and stored at −20° C.
The quantification of compound a1 in murine plasma samples was performed via liquid chromatography tandem mass spectrometry (LC-MS-MS).

C57Bl/6 mice = test: Toxicity after i.v. injection in mice; assay type: in vivo; details: for Toxicity: single animal
Method: as §1, with “.” for “Compound a1 was synthesized under contract by the company Enamine Ltd. according to Example 1.”, “[…].” for “First, a 100 mM stock solution of compound a1 in DMSO was prepared by dissolving 18.46 mg of compound a1 (molecular weight of 461.56 g/mol) in 400 μl DMSO at room temperature.”
as §2, with “[…];” for “Female adult C57Bl/6 mice (6-8 weeks old, body weight 20 g) were treated with 5 mg/kg (low dose) and 25 mg/kg (high dose) compound a1 or with vehicle (formulations without compound a1) or with saline by intravenous (i.v.) injections for 1 hour using a 1 ml syringe (29-G, Terumo);”

TrkA [2] = test: KdELECT Kd measurement (KINOMEscan), TrkA; assay type: binding
Method: (§3) Kd measurements were done via the KdELECT product service from DiscoverX Corporation (Freemont, Calif., USA) which also employs the KINOMEscan technology. Here, inhibitor binding constants (Kd values) are calculated from duplicate 11-point dose-response curves.

TrkA [3] = target: TrkA (Homo sapiens, UniProt P04629); test: KdELECT Kd measurement (KINOMEscan), TrkA; assay type: binding
Method: as §3

AurA [4] = target: T1, AurA (Homo sapiens, UniProt O14965); test: KINOMEscan primary screen against AurA; assay type: binding; details: % of control
T1 sequence (O14965 1-403): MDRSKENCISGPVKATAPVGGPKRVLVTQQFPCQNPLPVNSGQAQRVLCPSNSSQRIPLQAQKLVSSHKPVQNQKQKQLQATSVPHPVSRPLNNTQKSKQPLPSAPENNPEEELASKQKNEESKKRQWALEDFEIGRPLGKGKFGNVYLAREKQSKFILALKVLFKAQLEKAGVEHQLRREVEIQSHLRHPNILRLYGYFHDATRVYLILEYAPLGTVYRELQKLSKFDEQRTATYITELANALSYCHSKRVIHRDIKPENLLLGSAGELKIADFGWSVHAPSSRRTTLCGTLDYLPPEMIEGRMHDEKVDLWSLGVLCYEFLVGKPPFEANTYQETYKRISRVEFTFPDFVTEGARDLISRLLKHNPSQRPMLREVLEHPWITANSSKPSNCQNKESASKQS
Method: Compounds were initially tested in a primary screen against TrkA (at 10 and 100 nM) and AurA (at 100 nM and 1 μM) using the KINOMEscan technology from DiscoverX Corporation, Fremont, Calif., USA (https://www.discoverx.com/services/drug-discovery-development-services/kinase-profiling/kinomescan).

AurA [5] = target: T1, AurA; test: KdELECT Kd measurement (KINOMEscan), AurA; assay type: binding
Method: as §3

[6] = duplicate 11-point dose-response curves

TrkA (Homo sapiens, UniProt P04629), sequence (P04629 33-796): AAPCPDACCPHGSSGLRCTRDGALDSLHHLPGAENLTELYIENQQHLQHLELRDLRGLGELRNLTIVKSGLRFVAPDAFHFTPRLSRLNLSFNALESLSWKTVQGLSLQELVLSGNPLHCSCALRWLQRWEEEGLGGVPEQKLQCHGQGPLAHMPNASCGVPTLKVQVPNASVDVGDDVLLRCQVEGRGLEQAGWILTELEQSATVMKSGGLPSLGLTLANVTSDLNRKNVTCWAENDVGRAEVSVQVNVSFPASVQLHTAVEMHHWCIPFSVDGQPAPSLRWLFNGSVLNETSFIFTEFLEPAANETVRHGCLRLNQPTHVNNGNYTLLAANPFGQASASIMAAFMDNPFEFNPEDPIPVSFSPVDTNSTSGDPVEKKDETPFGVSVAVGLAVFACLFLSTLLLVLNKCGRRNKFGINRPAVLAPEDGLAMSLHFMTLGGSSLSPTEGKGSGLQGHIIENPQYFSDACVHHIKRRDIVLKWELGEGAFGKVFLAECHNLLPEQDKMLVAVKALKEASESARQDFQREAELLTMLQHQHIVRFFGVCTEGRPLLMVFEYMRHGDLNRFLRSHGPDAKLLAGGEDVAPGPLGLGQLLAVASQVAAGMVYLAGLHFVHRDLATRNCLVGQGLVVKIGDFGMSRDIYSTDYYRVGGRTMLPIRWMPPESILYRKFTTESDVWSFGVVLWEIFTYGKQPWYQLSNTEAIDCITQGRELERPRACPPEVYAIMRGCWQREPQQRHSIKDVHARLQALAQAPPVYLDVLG

## CN1CCN(c2cc(Nc3cc(-c4cccc(F)c4)[nH]n3)nc(Sc3ccccc3)n2)CC1 [a1, N-[5-(3-fluorophenyl)-1H-pyrazol-3-yl]-6-(4-methylpiperazin-1-yl)-2-(phenylsulfanyl)pyrimidin-4-amine]
[1]; a1_high formulation, 25 mg/kg i.v., 25 mg/kg
  Plasma Conc. of Compound a1: 805 nM and 920 nM
[1]; a1_low formulation, 5 mg/kg i.v., 5 mg/kg
  Plasma Conc. of Compound a1: 272 nM and 407 nM
[1]; 5 mg/kg (low dose) i.v.
  concentration at 1 h: 340 nM
[1]; 25 mg/kg (high dose) i.v.
  concentration at 1 h: 863 nM
C57Bl/6 mice; 5 and 25 mg/kg i.v., all animals
  signs of toxicity: none of the animals showed any obvious signs of toxicity; also recorded: none of the animals showed any toxic sign
C57Bl/6 mice; a1_high formulation, 25 mg/kg i.v.
  Toxicity: None
C57Bl/6 mice; a1_low formulation, 5 mg/kg i.v.
  Toxicity: None
TrkA [2]; TrkA pKd versus AurA pKd
  ΔpKd: 3.3
TrkA [2]; TrkA versus AurA
  improved selectivity against off-target AurA: 10,000 fold
TrkA [3]
  TrkA [pKd]: 8.6
TrkA [3]; [6]
  pKd: 8.59
AurA [4]; 100 nM compound
  % Ctrl. AurA @100 nM: 97 % Ctrl.
AurA [4]; 1 μM compound
  % Ctrl. AurA @1 μM: 92 % Ctrl.
AurA [5]
  AurA [pKd]: 5.3
AurA [5]; [6]
  pKd: 5.35
